Like-named read-outs stand apart in the source and are kept apart here. Where a SMILES comes first, the peptide text is derived from it. Bridges are numbered along the chain shown (N, C = ends). [ ]: non-standard residue; d: D form. 2Nal = N[C@@H](Cc1ccc2ccccc2c1)C(=O)O; Cit = NC(=O)NCCC[C@H](N)C(=O)O
Key:
Assay type in all cases: cell-based
[1] = Cytotoxicity Test I: virus-uninfected MT-4 cells, MTT method; conditions: virus-uninfected MT-4 cells, MTT method, read-out: CC50 (Test I), 50% survival concentration
Protocol: (§1) HIV-1 (IIIB) strain obtained from MOLT/HIV-1 (IIIB) cell previously infected by HIV-1 was used. The polypeptide of the present invention was added to MT-4 CD4^+ T cells infected by HIV in various kinds of concentrations, and a number of living cells after culturing at 37° C. for 5 days was determined by using a 3′-(4,5-dimethylthiazol-2-yl)-2,5-diphenyltetrazolinium bromide (MTT) method. Anti-HIV activity is shown by a concentration (EC50 value), where MT-4 cell death by HIV infection is inhibited by 50%. Cytotoxicity of the peptide according to the present invention was shown by a 50% survival concentration (Test I: CC50 value) by culturing virus-uninfected MT-4 cells with the polypeptide according to the present invention in various concentrations, and determining a number of living cells by the MTT method. Moreover, a number of living cells of human peripheral blood mononuclear cells (monocyte) (PBMC) was determined by trypan blue dyeing method, and shown by a 50% survival concentration (Test II: CC50 value). Respective ratios of the CC50 value and the EC50 value were shown as a selective index (SI). Obtained values were summarized in Table 3 using the conventionally known polypeptides T134 and T140, and an anti-HIV compound: 3′-azido-2′,3′-dideoxythymidine (AZT) used as a medicine as a control anti-HIV agent.

[2] = system: virus-uninfected MT-4 cells; test: as above; conditions: for cytotoxicity in words, compared with conventional T134/T140: conclusion drawn from Table 3; for SI: CC50 (Test I)/EC50: selective index, MT-4 CC50 over anti-HIV EC50
Protocol: as §1

HIV-1 (IIIB) strain = test: Anti-HIV activity: inhibition of MT-4 cell death by HIV infection (MTT method); conditions: for EC50: MT-4 CD4+ T cells infected by HIV-1 (IIIB), 37° C., 5 days, MTT, average of at least three measurements, read-out: EC50 (concentration where MT-4 cell death by HIV infection is inhibited by 50%)
Protocol: as §1

[3] = human, MT-4 cells (virus-uninfected)

Compound | CC50 [1, 3] | cytotoxicity in words, compared with conventional T134/T140 [2] | SI: CC50 (Test I)/EC50 [2] | EC50 (HIV-1 (IIIB) strain) | anti-HIV activity in words, compared with T140 (HIV-1 (IIIB) strain; conclusion drawn from Table 3) | CC50 [1]
N=C(N)NCCC[C@H](NC(=O)[C@@H]1CSSC[C@H](NC(=O)[C@H](Cc2ccc3ccccc3c2)NC(=O)[C@H](CCCNC(=N)N)NC(=O)[C@@H](N)CCCNC(N)=O)C(=O)N[C@@H](Cc2ccc(O)cc2)C(=O)N[C@@H](CCCNC(=N)N)C(=O)N[C@@H](CCCCN)C(=O)N[C@H](CCCNC(N)=O)C(=O)N2CCC[C@H]2C(=O)N[C@@H](Cc2ccc(O)cc2)C(=O)N[C@@H](CCCNC(=N)N)C(=O)N[C@@H](CCCNC(N)=O)C(=O)N1)C(N)=O [TC14018, H-Cit-Arg-Nal-Cys-Tyr-Arg-Lys-DCit-Pro-Tyr-Arg-Cit-Cys-Arg-NH2] | > 100 µM | lowered cytotoxicity | >83000 | 0.0012 µM |  | 
C[C@@H]1NC(=O)[C@H](CCCN=C(N)N)NC(=O)[C@H](Cc2ccc(O)cc2)NC(=O)[C@@H](NC(=O)[C@H](Cc2ccc3ccccc3c2)NC(=O)[C@H](CCCN=C(N)N)NC(=O)[C@@H](N)CCCN=C(N)N)CSSC[C@@H](C(=O)N[C@@H](CCCN=C(N)N)C(=O)O)NC(=O)[C@H](CCCNC(N)=O)NC(=O)[C@H](CCCN=C(N)N)NC(=O)[C@H](Cc2ccc(O)cc2)NC(=O)[C@@H]2CCCN2C(=O)[C@@H](CCCCN)NC1=O [TA14006, H-Arg-Arg-Nal-Cys-Tyr-Arg-Ala-DLys-Pro-Tyr-Arg-Cit-Cys-Arg-OH] (H-RR[2Nal]CYRA[dK]PYR[Cit]CR-OH; disulfide 4-13) | > 80 µM |  | >1800 |  |  | 
C[C@H](N)C(=O)N[C@@H](CCCNC(=N)N)C(=O)N[C@@H](Cc1ccc2ccccc2c1)C(=O)N[C@H]1CSSC[C@@H](C(=O)N[C@@H](CCCNC(=N)N)C(=O)O)NC(=O)[C@H](CCCNC(N)=O)NC(=O)[C@H](CCCNC(=N)N)NC(=O)[C@H](Cc2ccc(O)cc2)NC(=O)[C@@H]2CCCN2C(=O)[C@@H](CCCCN)NC(=O)[C@H](CCCCN)NC(=O)[C@H](CCCNC(=N)N)NC(=O)[C@H](Cc2ccc(O)cc2)NC1=O [TA14001, H-Arg-Arg-Nal-Cys-Tyr-Arg-Lys-DLys-Pro-Tyr-Arg-Cit-Cys-Arg-OH] (H-AR[2Nal]CYRK[dK]PYR[Cit]CR-OH; disulfide 4-13) | > 40 µM |  | >750 | 0.056 µM |  | 
C[C@@H]1NC(=O)[C@H](Cc2ccc(O)cc2)NC(=O)[C@@H]2CCCN2C(=O)[C@@H](CCCCN)NC(=O)[C@H](CCCCN)NC(=O)[C@H](CCCNC(=N)N)NC(=O)[C@H](Cc2ccc(O)cc2)NC(=O)[C@@H](NC(=O)[C@H](Cc2ccc3ccccc3c2)NC(=O)[C@H](CCCNC(=N)N)NC(=O)[C@@H](N)CCCNC(=N)N)CSSC[C@@H](C(=O)N[C@@H](CCCNC(=N)N)C(=O)O)NC(=O)[C@H](CCCNC(N)=O)NC1=O [TA14010, H-Arg-Arg-Nal-Cys-Tyr-Arg-Lys-DLys-Pro-Tyr-Ala-Cit-Cys-Arg-OH] (H-RR[2Nal]CYRK[dK]PYA[Cit]CR-OH; disulfide 4-13) | > 80 µM |  | >4800 | 0.018 µM |  | 
N=C(N)NCCC[C@H](NC(=O)[C@@H]1CSSC[C@H](NC(=O)[C@H](Cc2ccc3ccccc3c2)NC(=O)[C@H](CCCNC(=N)N)NC(=O)[C@@H](N)CCCNC(=N)N)C(=O)N[C@@H](Cc2ccc(O)cc2)C(=O)N[C@@H](CCCNC(N)=O)C(=O)N[C@@H](CCCCN)C(=O)N[C@H](CCCNC(N)=O)C(=O)N2CCC[C@H]2C(=O)N[C@@H](Cc2ccc(O)cc2)C(=O)N[C@@H](CCCNC(=N)N)C(=O)N[C@@H](CCCNC(N)=O)C(=O)N1)C(=O)O [TC14011, H-Arg-Arg-Nal-Cys-Tyr-Cit-Lys-DCit-Pro-Tyr-Arg-Cit-Cys-Arg-OH] | > 100 µM | lowered cytotoxicity | >200000 | 0.0005 µM |  | 
C[C@H]1NC(=O)[C@H](CCCCN)NC(=O)[C@H](CCCN=C(N)N)NC(=O)[C@H](Cc2ccc(O)cc2)NC(=O)[C@@H](NC(=O)[C@H](Cc2ccc3ccccc3c2)NC(=O)[C@H](CCCN=C(N)N)NC(=O)[C@@H](N)CCCN=C(N)N)CSSC[C@@H](C(=O)N[C@@H](CCCN=C(N)N)C(=O)O)NC(=O)[C@H](CCCNC(N)=O)NC(=O)[C@H](CCCN=C(N)N)NC(=O)[C@H](Cc2ccc(O)cc2)NC(=O)[C@@H]2CCCN2C1=O [TA14007, H-Arg-Arg-Nal-Cys-Tyr-Arg-Lys-DAla-Pro-Tyr-Arg-Cit-Cys-Arg-OH] (H-RR[2Nal]CYRK[dA]PYR[Cit]CR-OH; disulfide 4-13) | > 80 µM |  | >5200 |  |  | 
N=C(N)NCCC[C@H](NC(=O)[C@@H]1CSSC[C@H](NC(=O)[C@H](Cc2ccc3ccccc3c2)NC(=O)[C@H](CCCNC(=N)N)NC(=O)[C@@H](N)CCCNC(=N)N)C(=O)N[C@@H](Cc2ccc(O)cc2)C(=O)N[C@@H](CCCNC(=N)N)C(=O)N[C@@H](CCCCN)C(=O)N[C@H](CCCNC(N)=O)C(=O)N2CCC[C@H]2C(=O)N[C@@H](Cc2ccc(O)cc2)C(=O)N[C@@H](CCCNC(=N)N)C(=O)N[C@@H](CCCNC(N)=O)C(=O)N1)C(N)=O [TN14005, H-Arg-Arg-Nal-Cys-Tyr-Arg-Lys-DCit-Pro-Tyr-Arg-Cit-Cys-Arg-NH2] | > 100 µM | cytotoxicity is markedly lowered | >21000 | 0.0046 µM |  | 
C[C@@H]1NC(=O)[C@@H]2CCCN2C(=O)[C@@H](CCCCN)NC(=O)[C@H](CCCCN)NC(=O)[C@H](CCCN=C(N)N)NC(=O)[C@H](Cc2ccc(O)cc2)NC(=O)[C@@H](NC(=O)[C@H](Cc2ccc3ccccc3c2)NC(=O)[C@H](CCCN=C(N)N)NC(=O)[C@@H](N)CCCN=C(N)N)CSSC[C@@H](C(=O)N[C@@H](CCCN=C(N)N)C(=O)O)NC(=O)[C@H](CCCNC(N)=O)NC(=O)[C@H](CCCN=C(N)N)NC1=O [TA14009, H-Arg-Arg-Nal-Cys-Tyr-Arg-Lys-DLys-Pro-Ala-Arg-Cit-Cys-Arg-OH] (H-RR[2Nal]CYRK[dK]PAR[Cit]CR-OH; disulfide 4-13) | > 80 µM |  | >4500 |  |  | 
N=C(N)NCCC[C@H](NC(=O)[C@@H]1CSSC[C@H](NC(=O)[C@H](Cc2ccc3ccccc3c2)NC(=O)[C@H](CCCNC(=N)N)NC(=O)[C@@H](N)CCCNC(=N)N)C(=O)N[C@@H](Cc2ccc(O)cc2)C(=O)N[C@@H](CCCNC(N)=O)C(=O)N[C@@H](CCCCN)C(=O)N[C@H](CCCNC(N)=O)C(=O)N2CCC[C@H]2C(=O)N[C@@H](Cc2ccc(O)cc2)C(=O)N[C@@H](CCCNC(=N)N)C(=O)N[C@@H](CCCNC(N)=O)C(=O)N1)C(N)=O [TC14012, H-Arg-Arg-NaI-Cys-Tyr-Cit-Lys-DCit-Pro-Tyr-Arg-Cit-Cys-Arg-NH2] | > 100 µM | lowered cytotoxicity | >250000 | 0.0004 µM | higher anti-HIV activity | 
C[C@@H]1NC(=O)[C@H](Cc2ccc(O)cc2)NC(=O)[C@@H](NC(=O)[C@H](Cc2ccc3ccccc3c2)NC(=O)[C@H](CCCN=C(N)N)NC(=O)[C@@H](N)CCCN=C(N)N)CSSC[C@@H](C(=O)N[C@@H](CCCN=C(N)N)C(=O)O)NC(=O)[C@H](CCCNC(N)=O)NC(=O)[C@H](CCCN=C(N)N)NC(=O)[C@H](Cc2ccc(O)cc2)NC(=O)[C@@H]2CCCN2C(=O)[C@@H](CCCCN)NC(=O)[C@H](CCCCN)NC1=O [TA14005, H-Arg-Arg-Nal-Cys-Tyr-Ala-Lys-DLys-Pro-Tyr-Arg-Cit-Cys-Arg-OH] (H-RR[2Nal]CYAK[dK]PYR[Cit]CR-OH; disulfide 4-13) | > 40 µM |  | >4500 |  |  | 
N=C(N)NCCC[C@H](NC(=O)[C@@H]1CSSC[C@H](NC(=O)[C@H](Cc2ccc3ccccc3c2)NC(=O)[C@H](CCCNC(=N)N)NC(=O)[C@@H](N)CCCNC(=N)N)C(=O)N[C@@H](Cc2ccc(O)cc2)C(=O)N[C@@H](CCCNC(N)=O)C(=O)N[C@@H](CCCCN)C(=O)N[C@H](CCCCN)C(=O)N2CCC[C@H]2C(=O)N[C@@H](Cc2ccc(O)cc2)C(=O)N[C@@H](CCCNC(=N)N)C(=O)N[C@@H](CCCNC(N)=O)C(=O)N1)C(N)=O [TN14003, H-Arg-Arg-Nal-Cys-Tyr-Cit-Lys-DLys-Pro-Tyr-Arg-Cit-Cys-Arg-NH2] (H-RR[2Nal]CY[Cit]K[dK]PYR[Cit]CR-NH2; disulfide 4-13 (inferred)) | > 100 µM | lowered cytotoxicity | >166000 | 0.0006 µM |  | 
C[C@@H]1NC(=O)[C@@H](CCCCN)NC(=O)[C@H](CCCCN)NC(=O)[C@H](CCCN=C(N)N)NC(=O)[C@H](Cc2ccc(O)cc2)NC(=O)[C@@H](NC(=O)[C@H](Cc2ccc3ccccc3c2)NC(=O)[C@H](CCCN=C(N)N)NC(=O)[C@@H](N)CCCN=C(N)N)CSSC[C@@H](C(=O)N[C@@H](CCCN=C(N)N)C(=O)O)NC(=O)[C@H](CCCNC(N)=O)NC(=O)[C@H](CCCN=C(N)N)NC(=O)[C@H](Cc2ccc(O)cc2)NC1=O [TA14008, H-Arg-Arg-Nal-Cys-Tyr-Arg-Lys-DLys-Ala-Tyr-Arg-Cit-Cys-Arg-OH] (H-RR[2Nal]CYRK[dK]AYR[Cit]CR-OH; disulfide 4-13) |  |  | >4700 |  |  | > 80 µM

Source: patent US8435939B2, “Polypeptide anti-HIV agent containing the same” (priority 2000, dated 2013)
